Assay results taken from PMC7185459 (Antiviral Research, 2015).
Read-outs that look alike come from different tables or passages of the source.

What was measured:
hRSV strain Long [1] = conditions: HEp-2 cells
hRSV strain Long [2] = assay: microbe, parasite or virus in culture; conditions: human respiratory syncytial virus, HEp-2, 96 h
SARS CoV = type: cell-based
human metapneumovirus = assay: In vitro CPE assay, human metapneumovirus; type: cell-based
[3] = tested on: Venezuelan equine encephalitis virus; type: cell-based
hRSV strain Long [4] = conditions: A549 cells
Nipah virus = type: cell-based
RSV/A/Tracy = type: in vivo; conditions: cotton rat, intraperitoneal at -1, +6, +24 h, vs vehicle, day +4
[5] = tested on: SRI 29365-resistant mutant hRSV (G protein A63V); type: cell-based, Human respiratory syncytial virus
human influenza virus = assay: In vitro CPE assay, human influenza virus; type: cell-based
Dengue 2 virus = assay: In vitro CPE assay, Dengue 2 virus; type: cell-based
physchem [6] = assay: physchem
hRSV strain Long [7] = assay: microbe, parasite or virus in culture; conditions: human respiratory syncytial virus, A549
physchem [8] = assay: physchem; remark: listed apart in the source

SMILES | SI (CC50/EC50) (hRSV strain Long [1]) | EC50 (hRSV strain Long [2]) [nM] | reduction in CPE due to antiviral activity (SARS CoV) | reduction in CPE due to antiviral activity (human metapneumovirus) | reduction in CPE due to antiviral activity [3] | SI (CC50/EC50) (hRSV strain Long [1]; listed as 2) | SI (CC50/EC50) (hRSV strain Long [4]) | reduction in CPE due to antiviral activity (Nipah virus) | body weight (RSV/A/Tracy) | lung lobe weight (RSV/A/Tracy) | resistance of mutant virus relative to wt virus EC50 [5] [fold] | reduction in CPE due to antiviral activity (human influenza virus) | reduction in CPE due to antiviral activity (Dengue 2 virus) | half-life (physchem [6]) [h] | EC50 (hRSV strain Long [7]) [nM] | solubility (physchem [8]) [µM]
c1csc(-c2nn3c(Cn4cnc5ccccc54)nnc3s2)c1 [Compound 1, 1-[6-(2-thienyl)[1,2,4]triazolo[3,4-b][1,3,4]thiadiazol-3-yl]methyl-1H-benzimidazole] | 391 | 230 |  |  |  |  |  |  |  |  |  |  |  |  |  | 
c1coc(-c2nn3c(Cn4cnc5ccccc54)nnc3s2)c1 [SRI 29365, 1-[6-(2-furyl)[1,2,4]triazolo[3,4-b][1,3,4]thiadiazol-3-yl]methyl-1H-benzimidazole] |  |  | No significant reduction in CPE | No significant reduction in CPE | No significant reduction in CPE | 83 | > 83 | No significant reduction in CPE | no significant difference | no significant difference | > 100 | No significant reduction in CPE | No significant reduction in CPE | > 60 | 1200 | < 400
